Results taken from patent US9249517B2, “Process for production of reduced glutathione” (Kyowa Hakko Bio Co., Ltd., priority 2009, dated 2016).

Assays:
[1] = 25° C., 24-36 hr
Protocol: Using an aqueous reduced glutathione solution (100 g/L, pH 2.90) and sulfuric acid, aqueous reduced glutathione solutions (100 g/L) adjusted to pH 0.6, 1.2 and 2.0 were produced.
Each solution was preserved at 25° C. for 24-36 hr, and the residual amount of reduced glutathione was quantified by high performance liquid chromatography (HPLC) under the following conditions. […] As for the impurity, the total amount of the substances other than reduced glutathione and oxidized glutathione was quantified under the following HPLC conditions, and the concentration (g/L) converted to reduced glutathione was calculated.
HPLC Conditions • column: Nucleosil 100-5 C18 φ4.6×150 mm • column temperature: 40° C. • buffer: 10% acetonitrile solution containing 0.405% sodium 1-heptanesulfonate (adjusted to pH 2.0 with phosphoric acid) • flow rate: 1.0 mL/min • detector: UV detector (wavelength 210 nm)

[2] = Solubility of oxidized glutathione in water; assay type: physicochemical
Description: Utilizing this characteristic, a solution of oxidized glutathione with concentration beyond saturation solubility can be prepared. […] While the concentration of the supersaturated aqueous oxidized glutathione solution containing a conducting agent other than acid is not limited as long as it can maintain supersaturation state, it is 50 g/L or more, preferably 100 g/L or more, more preferably 150 g/L or more, further preferably 200 g/L or more, most preferably 300 g/L or more.

Compound	reduced glutathione residual ratio ([1]; 100 g/L aqueous solution at pH 2.0 or less (pH 0.6, 1.2, 2.0, sulfuric acid) vs pH 2.90, FIG. 1A)	increased amount of impurity due to hydrolysis ([1]; 100 g/L aqueous solution at pH 2.0 or less vs pH 2.90, FIG. 1B)	stability of supersaturation state ([2]; ambient temperature, requires several days before crystallizing)	supersaturation solubility ([2]; once dissolved, aqueous solution)	saturation solubility in water ([2]; water, ambient temperature (25° C.))
N[C@@H](CCC(=O)N[C@@H](CS)C(=O)NCC(=O)O)C(=O)O [reduced glutathione]	lower reduced glutathione residual ratio as compared to a solution at pH 2.90	higher increased amount of impurity due to hydrolysis as compared to a solution at pH 2.90	–	–	–
oxidized glutathione	–	–	stable at ambient temperature	over 300 g/L	≤ 20 mg/mL
